pIC50: −log10 of the molar value. Read-outs that look alike come from different tables or passages of the source.
Columns and labels:
human Gal-3 (hGal-3) = human Gal-3 (hGal-3) (Homo sapiens (Human), UniProt P17931); test: competitive binding assay: biotinylated hGal-3 binding to microplate-adsorbed asialofetuin (ASF)
How it was run: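 Compounds serially diluted in DMSO compete with asialofetuin for biotinylated human Gal-3; plates are incubated 3 h at 4 °C, washed, then treated 1 h at 4 °C with streptavidin-peroxidase (80 ng/mL) and developed with ABTS. IC50 values are means of several measurements.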

human Gal-1 (hGal-1) = human Gal-1 (hGal-1) (Homo sapiens (Human), UniProt P09382); test: competitive binding assay: biotinylated hGal-1 binding to microplate-adsorbed asialofetuin (ASF); conditions: Table 15; read-out: IC50 (Galectin-1 inhibition)
Chain of human Gal-1 (hGal-1) (P09382 whole entry): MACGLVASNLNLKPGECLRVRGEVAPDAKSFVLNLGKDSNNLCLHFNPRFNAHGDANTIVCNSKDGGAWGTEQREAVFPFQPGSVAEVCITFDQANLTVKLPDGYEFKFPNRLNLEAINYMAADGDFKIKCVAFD
How it was run: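 Biotinylated human Gal-1 (300-1000 ng/mL) competes with serially diluted compound for binding to ASF-coated plates, 3 h at 4° C. Bound protein detected with streptavidin-peroxidase and ABTS substrate (spectrophotometric). IC50 given as mean of several measurements.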

[1] = Table 5, read-out: IC50 (Gal-3 inhibition)
[2] = Table 10, 2-OMe-Gal inhibitors, read-out: IC50 (Gal-3 inhibition)
[3] = Table 11, read-out: IC50 (Gal-3 inhibition)
[4] = Gal-3 inhibition, binding of biotinylated hGal-3 to ASF, mean values, read-out: IC50

Chain of human Gal-3 (hGal-3) (P17931 whole entry): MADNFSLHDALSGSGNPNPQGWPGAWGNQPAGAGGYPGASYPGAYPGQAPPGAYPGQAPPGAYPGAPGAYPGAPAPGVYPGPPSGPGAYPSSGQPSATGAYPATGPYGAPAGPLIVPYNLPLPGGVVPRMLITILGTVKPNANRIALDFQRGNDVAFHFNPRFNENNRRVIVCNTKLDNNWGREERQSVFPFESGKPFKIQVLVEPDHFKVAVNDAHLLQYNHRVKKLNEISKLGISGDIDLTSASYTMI

Row | Molecule | pIC50 (human Gal-1 (hGal-1)) | pIC50 (human Gal-3 (hGal-3); [4]) | also measured
1 | Cc1ccccc1C(S[C@@H]1O[C@H](CO)[C@H](O)[C@H](n2cc(-c3cc(F)c(F)c(F)c3)nn2)[C@H]1O)C1(O)CC(C)C1C (stereo partly drawn) [Example 2.37.102., (2S,3R,4S,5R,6R)-2-(((1-Hydroxy-2,3-dimethylcyclobutyl)(o-tolyl)methyl)thio)-6-(hydroxymethyl)-4-(4-(3,4,5-trifluorophenyl)-1H-1,2,3-triazol-1-yl)tetrahydro-2H-pyran-3,5-diol] | 5.27 | – | pIC50 (human Gal-3 (hGal-3); [1]): 6.25
2 | (2S,3R,4S,5R,6R)-2-(((S)-(2-Cyclopropylphenyl)(4,4-difluoro-1-hydroxycyclohexyl)methyl)thio)-6-(hydroxymethyl)-4-(4-(3,4,5-trifluorophenyl)-1H-1,2,3-triazol-1-yl)tetrahydro-2H-pyran-3,5-diol [Example 2.44.106S.] | 5.72 | – | pIC50 (human Gal-3 (hGal-3); [1]): 6.03
3 | CO[C@@H]1[C@@H](n2cc(-c3ccc(Cl)c(F)c3F)nn2)[C@@H](O)[C@@H](CO)O[C@H]1SC(c1ncccc1C)C1(O)CCC(F)(F)CC1 (stereo partly drawn) [Example 22.44.126.I., (2R,3R,4S,5R,6S)-4-(4-(4-Chloro-2,3-difluorophenyl)-1H-1,2,3-triazol-1-yl)-6-(((4,4-difluoro-1-hydroxycyclohexyl)(3-methylpyridin-2-yl)methyl)thio)-2-(hydroxymethyl)-5-methoxytetrahydro-2H-pyran-3-ol] | 6.04 | – | pIC50 (human Gal-3 (hGal-3); Table 14, read-out: IC50 (Gal-3 inhibition)): 7.15
4 | CCn1nnc(C)c1[C@@H](S[C@@H]1O[C@H](CO)[C@H](O)[C@H](n2cc(-c3cc(F)c(F)c(F)c3)nn2)[C@H]1OC)C1(O)CCC(F)(F)CC1 [Example 2.44.138R.I., (2R,3R,4S,5R,6S)-6-(((R)-(4,4-Difluoro-1-hydroxycyclohexyl)(1-ethyl-4-methyl-1H-1,2,3-triazol-5-yl)methyl)thio)-2-(hydroxymethyl)-5-methoxy-4-(4-(3,4,5-trifluorophenyl)-1H-1,2,3-triazol-1-yl)tetrahydro-2H-pyran-3-ol] | 6.40 | – | pIC50 (human Gal-3 (hGal-3); [2]): 6.82
5 | CO[C@@H]1[C@@H](n2cc(-c3cc(F)c(F)c(F)c3)nn2)[C@@H](O)[C@@H](CO)O[C@H]1S[C@@H](c1nc(C)ccc1Cl)C1(O)CCC(F)(F)CC1 [Example 2.44.148S.I., (2R,3R,4S,5R,6S)-6-(((S)-(3-Chloro-6-methylpyridin-2-yl)(4,4-difluoro-1-hydroxycyclohexyl)methyl)thio)-2-(hydroxymethyl)-5-methoxy-4-(4-(3,4,5-trifluorophenyl)-1H-1,2,3-triazol-1-yl)tetrahydro-2H-pyran-3-ol] | 4.51 | – | pIC50 (human Gal-3 (hGal-3); [3]): 5.16
6 | CO[C@@H]1[C@@H](n2cc(-c3cc(F)c(F)c(F)c3)nn2)[C@@H](O)[C@@H](CO)O[C@H]1S[C@H](c1ccccc1C1CC1)C1(O)CCC(F)(F)CC1 [Example 2.44.106R.I., (2R,3R,4S,5R,6S)-6-(((R)-(2-Cyclopropylphenyl)(4,4-difluoro-1-hydroxycyclohexyl)methyl)thio)-2-(hydroxymethyl)-5-methoxy-4-(4-(3,4,5-trifluorophenyl)-1H-1,2,3-triazol-1-yl)tetrahydro-2H-pyran-3-ol] | 6.68 | – | pIC50 (human Gal-3 (hGal-3); [2]): 6.74
7 | OC[C@H]1O[C@@H](S[C@H](c2nccnc2Cl)C2(O)CCC(F)(F)CC2)[C@H](O)[C@@H](n2cc(-c3cc(F)c(F)c(F)c3)nn2)[C@H]1O [Example 2.44.133R., (2S,3R,4S,5R,6R)-2-(((R)-(3-Chloropyrazin-2-yl)(4,4-difluoro-1-hydroxycyclohexyl)methyl)thio)-6-(hydroxymethyl)-4-(4-(3,4,5-trifluorophenyl)-1H-1,2,3-triazol-1-yl)tetrahydro-2H-pyran-3,5-diol] | 6.80 | 7.70 | –
8 | CCC(O)C(S[C@@H]1O[C@H](CO)[C@H](O)[C@H](n2cc(-c3cc(F)c(F)c(F)c3)nn2)[C@H]1O)c1ccccc1C(F)(F)F (stereo partly drawn) [Example 2.60.112., (2S,3R,4S,5R,6R)-2-((2-Hydroxy-1-(2-(trifluoromethyl)phenyl)butyl)thio)-6-(hydroxymethyl)-4-(4-(3,4,5-trifluorophenyl)-1H-1,2,3-triazol-1-yl)tetrahydro-2H-pyran-3,5-diol] | 5.46 | 6.64 | –
9 | OC[C@H]1O[C@@H](SC(c2nccnc2Cl)C2(O)CCC(F)(F)CC2)[C@H](O)[C@@H](n2cc(-c3cc(F)c(F)c(F)c3)nn2)[C@H]1O (stereo partly drawn) [Example 2.44.133., (2S,3R,4S,5R,6R)-2-(((3-Chloropyrazin-2-yl)(4,4-difluoro-1-hydroxycyclohexyl)methyl)thio)-6-(hydroxymethyl)-4-(4-(3,4,5-trifluorophenyl)-1H-1,2,3-triazol-1-yl)tetrahydro-2H-pyran-3,5-diol] | 6.35 | 7.40 | –
10 | CO[C@@H]1[C@@H](n2cc(-c3cc(F)c(F)c(F)c3)nn2)[C@@H](O)[C@@H](CO)O[C@H]1SC(c1noc(C2CC2)c1C)C1(O)CCC(F)(F)CC1 (stereo partly shown) [Example 2.44.145.I.] | 5.90 | – | pIC50 (human Gal-3 (hGal-3); [3]): 6.15
11 | Cc1ccccc1C(S[C@@H]1O[C@H](CO)[C@H](O)[C@H](n2cc(-c3cc(F)c(F)c(F)c3)nn2)[C@H]1O)C1(O)CCOCC1 (stereo partly shown) [Example 2.41.102.] | 5.79 | – | pIC50 (human Gal-3 (hGal-3); [1]): 7.05
12 | CO[C@@H]1[C@@H](n2cc(-c3cc(F)c(F)c(F)c3)nn2)[C@@H](O)[C@@H](CO)O[C@H]1S[C@H](c1nocc1C)C1(O)CCS(=O)(=O)CC1 [Example 2.66.120R.I., 4-Hydroxy-4-((R)-(((2S,3R,4S,5R,6R)-5-hydroxy-6-(hydroxymethyl)-3-methoxy-4-(4-(3,4,5-trifluorophenyl)-1H-1,2,3-triazol-1-yl)tetrahydro-2H-pyran-2-yl)thio)(4-methylisoxazol-3-yl)methyl)tetrahydro-2H-thiopyran 1,1-dioxide] | 6.24 | – | pIC50 (human Gal-3 (hGal-3); [2]): 7.15
13 | (2S,3R,4S,5R,6R)-2-(((R)-(3,3-Difluoro-1-hydroxycyclobutyl)(3-(trifluoromethyl)pyridin-2-yl)methyl)thio)-6-(hydroxymethyl)-4-(4-(3,4,5-trifluorophenyl)-1H-1,2,3-triazol-1-yl)tetrahydro-2H-pyran-3,5-diol [Example 2.35.125R.] | 6.09 | – | pIC50 (human Gal-3 (hGal-3); [1]): 7.00
14 | OC[C@H]1O[C@@H](S[C@@H](c2ncccc2C(F)(F)F)C2(O)CCCC2)[C@H](O)[C@@H](n2cc(-c3cc(F)c(F)c(F)c3)nn2)[C@H]1O [Example 2.38.125S., (2S,3R,4S,5R,6R)-2-(((S)-(1-Hydroxycyclopentyl)(3-(trifluoromethyl)pyridin-2-yl)methyl)thio)-6-(hydroxymethyl)-4-(4-(3,4,5-trifluorophenyl)-1H-1,2,3-triazol-1-yl)tetrahydro-2H-pyran-3,5-diol] | 4.82 | 5.25 | –
15 | OC[C@H]1O[C@@H](S[C@H](c2ncccc2C(F)(F)F)C2(O)CCOCC2)[C@H](O)[C@@H](n2cc(-c3cc(F)c(F)c(F)c3)nn2)[C@H]1O [Example 2.41.125R., (2R,3R,4S,5R,6S)-2-(Hydroxymethyl)-6-(((R)-(4-hydroxytetrahydro-2H-pyran-4-yl)(3-(trifluoromethyl)pyridin-2-yl)methyl)thio)-4-(4-(3,4,5-trifluorophenyl)-1H-1,2,3-triazol-1-yl)tetrahydro-2H-pyran-3,5-diol] | 6.89 | – | pIC50 (human Gal-3 (hGal-3); [1]): 7.52
16 | Cc1nc(C)c(C(S[C@@H]2O[C@H](CO)[C@H](O)[C@H](n3cc(-c4cc(F)c(F)c(F)c4)nn3)[C@H]2O)C2(O)CCN(C)CC2)nc1C (stereo partly drawn) [Example 2.40.119., (2S,3R,4S,5R,6R)-2-(((4-Hydroxy-1-methylpiperidin-4-yl)(3,5,6-trimethylpyrazin-2-yl)methyl)thio)-6-(hydroxymethyl)-4-(4-(3,4,5-trifluorophenyl)-1H-1,2,3-triazol-1-yl)tetrahydro-2H-pyran-3,5-diol] | 6.57 | 7.00 | –
17 | Cc1cccnc1C(S[C@@H]1O[C@H](CO)[C@H](O)[C@H](n2cc(-c3cc(F)c(F)c(F)c3)nn2)[C@H]1O)C1(O)CCOCC1 (stereo partly drawn) [Example 2.41.126., (2R,3R,4S,5R,6S)-2-(Hydroxymethyl)-6-(((4-hydroxytetrahydro-2H-pyran-4-yl)(3-methylpyridin-2-yl)methyl)thio)-4-(4-(3,4,5-trifluorophenyl)-1H-1,2,3-triazol-1-yl)tetrahydro-2H-pyran-3,5-diol] | 6.10 | 7.10 | –
18 | Cc1cscc1C(S[C@@H]1O[C@H](CO)[C@H](O)[C@H](n2cc(-c3cc(F)c(F)c(F)c3)nn2)[C@H]1O)C(C)(C)O (stereo partly drawn) [Example 2.31.124., (2S,3R,4S,5R,6R)-2-((2-Hydroxy-2-methyl-1-(4-methylthiophen-3-yl)propyl)thio)-6-(hydroxymethyl)-4-(4-(3,4,5-trifluorophenyl)-1H-1,2,3-triazol-1-yl)tetrahydro-2H-pyran-3,5-diol] | 5.29 | 6.30 | –
19 | Cc1ccccc1C(S[C@@H]1O[C@H](CO)[C@H](O)[C@H](n2cc(-c3cc(F)c(F)c(F)c3)nn2)[C@H]1O)C(C)(C)O (stereo partly drawn) [Example 2.31.102., (2S,3R,4S,5R,6R)-2-((2-Hydroxy-2-methyl-1-(o-tolyl)propyl)thio)-6-(hydroxymethyl)-4-(4-(3,4,5-trifluorophenyl)-1H-1,2,3-triazol-1-yl)tetrahydro-2H-pyran-3,5-diol] | 5.67 | 6.77 | –
20 | Cc1c(F)cc(-c2cn([C@H]3[C@@H](O)[C@@H](CO)O[C@@H](S[C@@H](c4ccccc4C(F)(F)F)C(C)(C)O)[C@@H]3O)nn2)cc1F [Example 3.31.112S., (2S,3R,4S,5R,6R)-4-(4-(3,5-Difluoro-4-methylphenyl)-1H-1,2,3-triazol-1-yl)-2-(((S)-2-hydroxy-2-methyl-1-(2-(trifluoromethyl)phenyl)propyl)thio)-6-(hydroxymethyl)tetrahydro-2H-pyran-3,5-diol] | 4.27 | 5.31 | –

Reference: patent US12404295B2, “(Hetero)aryl-methyl-thio-beta-D-galactopyranoside derivatives” (Idorsia Pharmaceuticals Ltd, priority 2019, dated 2025)
